Measured values from US10975101B2, “Ultra-potent vinca alkaloids: added molecular complexity further disrupts the tublin dimer-dimer interface” (priority 2016, dated 2021).

Tests used:
[1] = system: L1210 (mouse lymphocytic leukemia) cells; experiment: Cell growth inhibition assay, L1210; type: cell-based; details: 72 hours incubation, phosphatase assay
Experimental: (§1) Compounds were tested for their cell growth inhibition of L1210 (ATCC no. CCL-219, mouse lymphocytic leukemia) cells, HCT116 (ATCC no. CCL-247, human colorectal carcinoma) cells, and HCT116/VM46 (a vinblastine-resistant strain of HCT116) cells in culture. A population of cells (>1×10^6 cells/mL as determined with a hemocytometer) was diluted with an appropriate amount of Dulbecco's Modified Eagle Medium (DMEM, Gibco) containing 10% fetal bovine serum (FBS, Gibco) to a final concentration of 30000 cells/mL.
(§2) To each well of a 96-well plate (Corning Costar), 100 μL of the cell media solution was added with a multichannel pipet. The cultures were incubated at 37° C. in an atmosphere of 5% CO2 and 95% humidified air for 24 hours. The test compounds were added to the plate as follows: test substances were diluted in DMSO to a concentration of 1 mM and 10-fold serial dilutions were performed on a separate 96-well plate. Fresh culture medium (100 μL) was added to each well of cells to constitute 200 μL of medium per well followed by 2 μL of each test agent. Compounds were tested in duplicate (n=2-18 times) at six concentrations between 0-1000 nM or 0-10000 nM. Following addition, cultures were incubated for an additional 72 hours.
(§3) A phosphatase assay was used to establish the IC50 values as follows: the media in each cell was removed and 100 μL of phosphatase solution (100 mg phosphatase substrate in 30 mL of 0.1 M NaOAc, pH 5.5, 0.1% Triton X-100 buffer) was added to each well. The plates were incubated at 37° C. for either 5 minutes (L1210) or 15 minutes (HCT116 and HCT116/VM46). After the given incubation time, 50 μL of 0.1 N NaOH was added to each well and the absorption at 405 nm was determined using a 96 well plate reader. As the absorption is directly proportional to the number of living cells, the IC50 values were calculated and the reported values represent of the average of 4-36 determinations (SD±10%).

[2] = system: HCT116 (human colorectal carcinoma) cells; experiment: cells; type: cell-based; details: 72 hours incubation, phosphatase assay; read-out: IC50, HCT116
Experimental: as §1, §2, §3

[3] = system: HCT116/VM46 (a vinblastine-resistant strain of HCT116) cells; experiment: Cell growth inhibition assay, HCT116/VM46; type: cell-based, human; details: 72 hours incubation, phosphatase assay; Pgp-overexpressing resistant line
Experimental: as §1, §2, §3

Row | SMILES | IC50 [1] | IC50 [2] | IC50 [3]
1 | CC[C@]1(NC(=O)N2CCC(F)C2)C[C@H]2CN(CCc3c([nH]c4ccccc34)[C@@](C(=O)OC)(c3cc4c(cc3OC)N(C)[C@H]3[C@@](O)(C(=O)OC)[C@H](OC(C)=O)[C@]5(CC)C=CCN6CC[C@]43[C@@H]65)C2)C1 (single isomer, unassigned) [Compound 17] | 0.62 nM | 0.64 nM | 7.2 nM
2 | CC[C@]1(NC(=O)N2CCC(F)C2)C[C@H]2CN(CCc3c([nH]c4ccccc34)[C@@](C(=O)OC)(c3cc4c(cc3OC)N(C)[C@H]3[C@@](O)(C(=O)OC)[C@H](OC(C)=O)[C@]5(CC)C=CCN6CC[C@]43[C@@H]65)C2)C1 (single isomer, unassigned) [Compound 18] | 0.6 nM | 0.61 nM | 20 nM
3 | CC[C@]1(NC(=O)N2Cc3ccc(NC(=O)c4cccnc4)cc3C2)C[C@H]2CN(CCc3c([nH]c4ccccc34)[C@@](C(=O)OC)(c3cc4c(cc3OC)N(C)[C@H]3[C@@](O)(C(=O)OC)[C@H](OC(C)=O)[C@]5(CC)C=CCN6CC[C@]43[C@@H]65)C2)C1 [Compound 56] | 0.48 nM | 0.33 nM | 6.6 nM
4 | CC[C@]1(NC(=O)N2Cc3ccc(NC(=O)c4ccncc4)cc3C2)C[C@H]2CN(CCc3c([nH]c4ccccc34)[C@@](C(=O)OC)(c3cc4c(cc3OC)N(C)[C@H]3[C@@](O)(C(=O)OC)[C@H](OC(C)=O)[C@]5(CC)C=CCN6CC[C@]43[C@@H]65)C2)C1 [Compound 57] | 0.27 nM | 0.28 nM | 10.4 nM
5 | CC[C@]1(NC(=O)N2CCCCCC2)C[C@H]2CN(CCc3c([nH]c4ccccc34)[C@@](C(=O)OC)(c3cc4c(cc3OC)N(C)[C@H]3[C@@](O)(C(=O)OC)[C@H](OC(C)=O)[C@]5(CC)C=CCN6CC[C@]43[C@@H]65)C2)C1 [Compound 24] | 4.3 nM | 3.1 nM | 35 nM
6 | CC[C@]1(NC(=O)N2Cc3ccc(NC(=O)c4ccc(-c5ccccc5)cc4)cc3C2)C[C@H]2CN(CCc3c([nH]c4ccccc34)[C@@](C(=O)OC)(c3cc4c(cc3OC)N(C)[C@H]3[C@@](O)(C(=O)OC)[C@H](OC(C)=O)[C@]5(CC)C=CCN6CC[C@]43[C@@H]65)C2)C1 [Compound 51] | 5.9 nM | 6.3 nM | 75 nM
7 | CC[C@]1(NC(=O)N2Cc3ccc(NC(=O)c4ccccn4)cc3C2)C[C@H]2CN(CCc3c([nH]c4ccccc34)[C@@](C(=O)OC)(c3cc4c(cc3OC)N(C)[C@H]3[C@@](O)(C(=O)OC)[C@H](OC(C)=O)[C@]5(CC)C=CCN6CC[C@]43[C@@H]65)C2)C1 [Compound 55] | 0.37 nM | 0.49 nM | 3.6 nM
8 | CCCCCC(=O)Nc1ccc2c(c1)CN(C(=O)N[C@@]1(CC)C[C@H]3CN(CCc4c([nH]c5ccccc45)[C@@](C(=O)OC)(c4cc5c(cc4OC)N(C)[C@H]4[C@@](O)(C(=O)OC)[C@H](OC(C)=O)[C@]6(CC)C=CCN7CC[C@]54[C@@H]76)C3)C1)C2 [Compound 45] | 0.44 nM | 0.62 nM | 13 nM
9 | CC[C@]1(NC(=O)N2Cc3ccc(F)cc3C2)C[C@H]2CN(CCc3c([nH]c4ccccc34)[C@@](C(=O)OC)(c3cc4c(cc3OC)N(C)[C@H]3[C@@](O)(C(=O)OC)[C@H](OC(C)=O)[C@]5(CC)C=CCN6CC[C@]43[C@@H]65)C2)C1 [Compound 31] | 0.63 nM | 0.52 nM | 5.2 nM
10 | CCCNc1ccc2c(c1)CN(C(=O)N[C@@]1(CC)C[C@H]3CN(CCc4c([nH]c5ccccc45)[C@@](C(=O)OC)(c4cc5c(cc4OC)N(C)[C@H]4[C@@](O)(C(=O)OC)[C@H](OC(C)=O)[C@]6(CC)C=CCN7CC[C@]54[C@@H]76)C3)C1)C2 [Compound 39] | 0.4 nM | 0.31 nM | 4.6 nM
11 | CC[C@]1(NC(=O)N2CCCCCCC2)C[C@H]2CN(CCc3c([nH]c4ccccc34)[C@@](C(=O)OC)(c3cc4c(cc3OC)N(C)[C@H]3[C@@](O)(C(=O)OC)[C@H](OC(C)=O)[C@]5(CC)C=CCN6CC[C@]43[C@@H]65)C2)C1 [Compound 25] | 60 nM | 35 nM | 330 nM
12 | CC[C@]1(NC(=O)N2Cc3ccc(Cl)cc3C2)C[C@H]2CN(CCc3c([nH]c4ccccc34)[C@@](C(=O)OC)(c3cc4c(cc3OC)N(C)[C@H]3[C@@](O)(C(=O)OC)[C@H](OC(C)=O)[C@]5(CC)C=CCN6CC[C@]43[C@@H]65)C2)C1 [Compound 32] | 0.5 nM | 0.55 nM | 5.7 nM
13 | CC[C@]1(NC(=O)N2Cc3ccc(NC(=O)C=C(C)C)cc3C2)C[C@H]2CN(CCc3c([nH]c4ccccc34)[C@@](C(=O)OC)(c3cc4c(cc3OC)N(C)[C@H]3[C@@](O)(C(=O)OC)[C@H](OC(C)=O)[C@]5(CC)C=CCN6CC[C@]43[C@@H]65)C2)C1 [Compound 48] | 0.43 nM | 0.47 nM | 7.4 nM
14 | CC[C@]1(NC(=O)N2Cc3ccc(NC(=O)C(C)C)cc3C2)C[C@H]2CN(CCc3c([nH]c4ccccc34)[C@@](C(=O)OC)(c3cc4c(cc3OC)N(C)[C@H]3[C@@](O)(C(=O)OC)[C@H](OC(C)=O)[C@]5(CC)C=CCN6CC[C@]43[C@@H]65)C2)C1 [Compound 43] | 0.39 nM | 0.49 nM | 6.4 nM
15 | CC[C@]1(NC(=O)N2CCC(C#N)C2)C[C@H]2CN(CCc3c([nH]c4ccccc34)[C@@](C(=O)OC)(c3cc4c(cc3OC)N(C)[C@H]3[C@@](O)(C(=O)OC)[C@H](OC(C)=O)[C@]5(CC)C=CCN6CC[C@]43[C@@H]65)C2)C1 (single isomer, unassigned) [Compound 20] | 3.7 nM | 1.5 nM | 60 nM
16 | CC[C@]1(NC(=O)N2CCC(N(C)C)C2)C[C@H]2CN(CCc3c([nH]c4ccccc34)[C@@](C(=O)OC)(c3cc4c(cc3OC)N(C)[C@H]3[C@@](O)(C(=O)OC)[C@H](OC(C)=O)[C@]5(CC)C=CCN6CC[C@]43[C@@H]65)C2)C1 (single isomer, unassigned) [Compound 11] | 14 nM | 6.2 nM | 390 nM
17 | CCC1(NC(=O)N2CCC(Br)C2)CC2CN(CCc3c([nH]c4ccccc34)C(C(=O)OC)(c3cc4c(cc3OC)N(C)C3C(O)(C(=O)OC)C(OC(C)=O)C5(CC)C=CCN6CCC43C65)C2)C1 (mixture of isomers) [Compound 19] | 3.1 nM | 0.9 nM | 25 nM
18 | CC[C@]1(NC(=O)N2Cc3ccc(C(F)(F)F)cc3C2)C[C@H]2CN(CCc3c([nH]c4ccccc34)[C@@](C(=O)OC)(c3cc4c(cc3OC)N(C)[C@H]3[C@@](O)(C(=O)OC)[C@H](OC(C)=O)[C@]5(CC)C=CCN6CC[C@]43[C@@H]65)C2)C1 [Compound 34] | 0.59 nM | 0.67 nM | 6.2 nM
19 | CC[C@]1(NC(=O)N2Cc3ccc(NC(=O)C(C)(C)C)cc3C2)C[C@H]2CN(CCc3c([nH]c4ccccc34)[C@@](C(=O)OC)(c3cc4c(cc3OC)N(C)[C@H]3[C@@](O)(C(=O)OC)[C@H](OC(C)=O)[C@]5(CC)C=CCN6CC[C@]43[C@@H]65)C2)C1 [Compound 44] | 0.39 nM | 0.47 nM | 5.3 nM
20 | CC[C@]1(NC(=O)N2Cc3ccc(NC(=O)c4cncnc4)cc3C2)C[C@H]2CN(CCc3c([nH]c4ccccc34)[C@@](C(=O)OC)(c3cc4c(cc3OC)N(C)[C@H]3[C@@](O)(C(=O)OC)[C@H](OC(C)=O)[C@]5(CC)C=CCN6CC[C@]43[C@@H]65)C2)C1 [Compound 59] | 0.51 nM | 0.6 nM | 8.8 nM
